Test results: the supplement of paper PMC11208160

Experiment: recombinant UMI read abundance after kanamycin selection (control-corrected) (log10(CPM+1)); higher = more efficient recombination; extreme values may be limits of the assay; sequences stand for … in AGTGCAGAGAAAATCGGCCAGTTTTCTCTGCCTGCAGTCCGCATGCCGTGGGACCCCTTGGGTTCTAACCTGTTGCCTAGATTTATGCAGCGGACTGCCTTTCTCCCAAAGTGATAAACCGG…AGGTTGGTTTCACT; site = the 11-nt donor
Protocol: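 Pooled E. coli donor-specificity screen for the IS621 bridge recombinase. Each library member carries a reprogrammed 11-nt donor and a full-length LE bridge RNA expressed in cis from the natural promoter, with a paired donor-binding loop (8-nt LDG + 4-nt RDG) and a target-binding loop fixed to T5. It is co-electroporated with a T5 target plasmid; recombinase is induced with 0.07 mM IPTG and recombinants are selected on kanamycin. UMIs are counted as CPM, averaged over two biological replicates and corrected by the unselected control. Molecule = full bridge RNA written as DNA, built from the T5 scaffold: LDG = donor specificity nt 1-8, RDG = reverse complement of nt 8-11.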
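Also: IS621 bridge recombinase in Escherichia coli cells against a fixed T5 target plasmid.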

Sequence	recombinant UMI read abundance (log10)
ACACATCCATGGACCGGTTTTCCCGGTAATCCGTATTTGCC (site ACACATCCTGG)	1.79
ACACATCCATGGACCGGTTTTCCCGGTAATCCGTATTTGCC (site ACACATCCTGT)	0
ACACATCCATGGACCGGTTTTCCCGGTAATCCGTATTTGTC (site ACACATCCTGA)	1.53
ACACATCCATGGACCGGTTTTCCCGGTAATCCGTATTTGTC (site ACACATCCTGC)	0.011
ACACATCCATGGACCGGTTTTCCCGGTAATCCGTATTTGTC (site ACACATCCTGG)	0
ACACATCCATGGACCGGTTTTCCCGGTAATCCGTATTTGTC (site ACACATCCTGT)	0.239
ACACCTGCATGGACCGGTTTTCCCGGTAATCCGTATTTGGG (site ACACCTGCTCC)	0.734
ACACGAACATGGACCGGTTTTCCCGGTAATCCGTATTTGCC (site ACACGAACTGA)	1.32
ACACGAACATGGACCGGTTTTCCCGGTAATCCGTATTTGCC (site ACACGAACTGC)	0
ACACGAACATGGACCGGTTTTCCCGGTAATCCGTATTTGCC (site ACACGAACTGG)	2.57
ACACGAACATGGACCGGTTTTCCCGGTAATCCGTATTTGCC (site ACACGAACTGT)	1.59
ACACGAACATGGACCGGTTTTCCCGGTAATCCGTATTTGTT (site ACACGAACTAA)	2.08
ACACGAACATGGACCGGTTTTCCCGGTAATCCGTATTTGTT (site ACACGAACTCA)	0.359
ACACGAACATGGACCGGTTTTCCCGGTAATCCGTATTTGTT (site ACACGAACTGA)	1.96
ACACGAACATGGACCGGTTTTCCCGGTAATCCGTATTTGTT (site ACACGAACTTA)	1.35
ACACGGACATGGACCGGTTTTCCCGGTAATCCGTATTTGCT (site ACACGGACTAG)	2.76
ACACGTACATGGACCGGTTTTCCCGGTAATCCGTATTTGGG (site ACACGTACTCC)	0.42
ACACTATCATGGACCGGTTTTCCCGGTAATCCGTATTTGCG (site ACACTATCTCG)	2.79
ACACTATCATGGACCGGTTTTCCCGGTAATCCGTATTTGCG (site ACAGTATCTTG)	0
ACACTCCCATGGACCGGTTTTCCCGGTAATCCGTATTTGCG (site CTGACGACTAC)	0.0266
ACACTGGCATGGACCGGTTTTCCCGGTAATCCGTATTTGAG (site ACACTGGCTCT)	1.38
ACAGATCCATGGACCGGTTTTCCCGGTAATCCGTATTTGAC (site ACAAATCCTGT)	0

Sequence	recombinant UMI read abundance (log10)
ACAGATCCATGGACCGGTTTTCCCGGTAATCCGTATTTGAC (site ACACATCCTGT)	0
ACAGATCCATGGACCGGTTTTCCCGGTAATCCGTATTTGAC (site ACAGATCCTGT)	0.651
ACAGATCCATGGACCGGTTTTCCCGGTAATCCGTATTTGAC (site ACATATCCTGT)	0.985
ACAGCATCATGGACCGGTTTTCCCGGTAATCCGTATTTGCA (site ACAGAATCTTG)	0.803
ACAGCATCATGGACCGGTTTTCCCGGTAATCCGTATTTGCA (site ACAGCATCTTG)	2.11
ACAGCATCATGGACCGGTTTTCCCGGTAATCCGTATTTGCA (site ACAGGATCTTG)	0
ACAGCATCATGGACCGGTTTTCCCGGTAATCCGTATTTGCA (site ACAGTATCTTG)	1.73
ACAGCTTCATGGACCGGTTTTCCCGGTAATCCGTATTTGGC (site ACAGCTTCTGC)	3.35
ACAGGACCATGGACCGGTTTTCCCGGTAATCCGTATTTGCA (site ACAGGACCTTG)	0
ACAGGACCATGGACCGGTTTTCCCGGTAATCCGTATTTGCA (site ACAGTATCTTG)	1.52
ACAGGATCATGGACCGGTTTTCCCGGTAATCCGTATTTGAA (site ACAGGATCTTT)	2.93
ACAGGATCATGGACCGGTTTTCCCGGTAATCCGTATTTGAA (site ACAGTATCTTG)	0
ACAGGTGCATGGACCGGTTTTCCCGGTAATCCGTATTTGAT (site ACAGGTGCTAT)	2.2
ACAGGTGCATGGACCGGTTTTCCCGGTAATCCGTATTTGAT (site CCAGGTGCTAT)	2.2
ACAGGTGCATGGACCGGTTTTCCCGGTAATCCGTATTTGAT (site GCAGGTGCTAT)	0.572
ACAGGTGCATGGACCGGTTTTCCCGGTAATCCGTATTTGAT (site TCAGGTGCTAT)	1.78
ACAGTAACATGGACCGGTTTTCCCGGTAATCCGTATTTGCA (site ACAGTAACTTG)	2.83
ACAGTAACATGGACCGGTTTTCCCGGTAATCCGTATTTGCA (site ACAGTACCTTG)	0
ACAGTAACATGGACCGGTTTTCCCGGTAATCCGTATTTGCA (site ACAGTAGCTTG)	1.39
ACAGTAACATGGACCGGTTTTCCCGGTAATCCGTATTTGCA (site ACAGTATCTTG)	1.65
ACAGTAACATGGACCGGTTTTCCCGGTAATCCGTATTTGGA (site ACAGTAACTTC)	2.19
ACAGTAACATGGACCGGTTTTCCCGGTAATCCGTATTTGGA (site ACAGTATCTTG)	0

Sequence	recombinant UMI read abundance (log10)
ACAGTATCATGGACCGGTTTTCCCGGTAATCCGTATTTGGA (site ACAGTATCTTA)	2.36
ACAGTATCATGGACCGGTTTTCCCGGTAATCCGTATTTGGA (site ACAGTATCTTC)	2.88
ACAGTATCATGGACCGGTTTTCCCGGTAATCCGTATTTGGA (site ACAGTATCTTG)	2.02
ACAGTATCATGGACCGGTTTTCCCGGTAATCCGTATTTGGA (site ACAGTATCTTT)	2.61
ACAGTGGCATGGACCGGTTTTCCCGGTAATCCGTATTTGCT (site ACAGTGGCTAG)	2.32
ACAGTTCCATGGACCGGTTTTCCCGGTAATCCGTATTTGAA (site ACAGTTCCTTT)	1.36
ACAGTTTCATGGACCGGTTTTCCCGGTAATCCGTATTTGTA (site ACAGTATCTTG)	1.19
ACAGTTTCATGGACCGGTTTTCCCGGTAATCCGTATTTGTA (site ACAGTTTCTTA)	2.49
ACATAGACATGGACCGGTTTTCCCGGTAATCCGTATTTGGG (site ACATAGACTCC)	0.469
ACATAGACATGGACCGGTTTTCCCGGTAATCCGTATTTGGG (site ACCTAGACTCC)	0.0175
ACATAGACATGGACCGGTTTTCCCGGTAATCCGTATTTGGG (site ACGTAGACTCC)	0.00831
ACATAGACATGGACCGGTTTTCCCGGTAATCCGTATTTGGG (site ACTTAGACTCC)	0.0189
ACATATCCATGGACCGGTTTTCCCGGTAATCCGTATTTGAC (site ACAAATCCTGT)	0
ACATATCCATGGACCGGTTTTCCCGGTAATCCGTATTTGAC (site ACACATCCTGT)	0.817
ACATATCCATGGACCGGTTTTCCCGGTAATCCGTATTTGAC (site ACAGATCCTGT)	0
ACATATCCATGGACCGGTTTTCCCGGTAATCCGTATTTGAC (site ACATATCCTGT)	1.43
ACATCATCATGGACCGGTTTTCCCGGTAATCCGTATTTGCT (site ACATCATCTAG)	1.39
ACATCATCATGGACCGGTTTTCCCGGTAATCCGTATTTGCT (site CGATCATCTAG)	1.05
ACATCTGCATGGACCGGTTTTCCCGGTAATCCGTATTTGGT (site ACATCTGCTAC)	2.1
ACATCTGCATGGACCGGTTTTCCCGGTAATCCGTATTTGTG (site ACATCTACTCA)	0.401
ACATCTGCATGGACCGGTTTTCCCGGTAATCCGTATTTGTG (site ACATCTCCTCA)	0.0207
